According to ChEMBL document CHEMBL1201862, “PubChem BioAssay data set” (2004):
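The compound was tested at five concentrations on cells cultured in 96-well plates, with a 48-hour exposure period. Here, GI50 denotes the concentration required for 50% inhibition of growth.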 Active and inactive are the calls of the source. No stated cut-off is given here; in the data, active = GI50 up to about 1.1 µM and inactive = higher.

Tests used:
Assay in all cases: inhibition of tumour cell growth, NCI panel, 48 h
786-0 = system: 786-0
UO-31 = system: UO-31
MOLT-4 = system: MOLT-4
RXF 393 = system: RXF 393
U-251 = system: U-251
A498 = system: A498
MDA-MB-231 = system: MDA-MB-231
DU-145 = system: DU-145
MCF7 = system: MCF7
EKVX = system: EKVX
SR = system: SR
CCRF-CEM = system: CCRF-CEM
NCI/ADR-RES = system: NCI/ADR-RES
NCI-H460 = system: NCI-H460
HCT-116 = system: HCT-116
HL-60 = system: HL-60
M14 = system: M14
HOP-92 = system: HOP-92
LOX IMVI = system: LOX IMVI

Row | SMILES | GI50 (786-0) | GI50 (UO-31) | GI50 (MOLT-4) | GI50 (RXF 393) | GI50 (U-251) | GI50 (A498) | GI50 (MDA-MB-231) | GI50 (DU-145) | GI50 (MCF7) | GI50 (EKVX) | GI50 (SR) | GI50 (CCRF-CEM) | GI50 (NCI/ADR-RES) | GI50 (NCI-H460) | GI50 (HCT-116) | GI50 (HL-60) | GI50 (M14) | GI50 (HOP-92) | GI50 (LOX IMVI)
1 | CCCCCCC(N)(CCCCCC)C(=O)Nn1c(C)ccc1C | 28.6 µM (inactive) | 25.1 µM (inactive) | > 100 µM (inactive) | 25.7 µM (inactive) | > 100 µM (inactive) | > 100 µM (inactive) | 88.3 µM (inactive) | > 100 µM (inactive) | 14.6 µM (inactive) | 12 µM (inactive) | 29.9 µM (inactive) | > 100 µM (inactive) | 16 µM (inactive) | 31.8 µM (inactive) | 10.9 µM (inactive) | 5.36 µM (inactive) | > 100 µM (inactive) |  | 
2 | CC(=O)OC1CC2(C)C(OC(C)=O)CC1C2(C)C (configuration not stated) | > 100 µM (inactive) | > 100 µM (inactive) | > 100 µM (inactive) | > 100 µM (inactive) | > 100 µM (inactive) |  | > 100 µM (inactive) | > 100 µM (inactive) | > 100 µM (inactive) |  | > 100 µM (inactive) | > 100 µM (inactive) | > 100 µM (inactive) | > 100 µM (inactive) | > 100 µM (inactive) | > 100 µM (inactive) | > 100 µM (inactive) | > 100 µM (inactive) | > 100 µM (inactive)
3 | NCCCN1CCN(CCCNc2ccc3nnn4c5ccccc5c(=O)c2c34)CC1 | 9.06 µM (inactive) | 22.1 µM (inactive) | 9.51 µM (inactive) |  | 24 µM (inactive) | 18.6 µM (inactive) | 13.1 µM (inactive) | 14.9 µM (inactive) | 16.2 µM (inactive) | 19.9 µM (inactive) | > 100 µM (inactive) | 9.91 µM (inactive) | 55 µM (inactive) | 18.4 µM (inactive) | 6.73 µM (inactive) | 8.59 µM (inactive) | 17.6 µM (inactive) | 18.8 µM (inactive) | 8.32 µM (inactive)
4 | COc1cccc2c1OC(c1ccc(Cl)cc1)C([N+](=O)[O-])=C2 (configuration not stated) | 1.84 µM (inactive) | 1.77 µM (inactive) | 1.49 µM (inactive) | 1.64 µM (inactive) | 2.38 µM (inactive) |  | 3.52 µM (inactive) | 3.68 µM (inactive) | 1.2 µM (inactive) | 11.7 µM (inactive) | 0.538 µM (active) | 0.356 µM (active) | 3.79 µM (inactive) | 1.58 µM (inactive) | 1.35 µM (inactive) | > 100 µM (inactive) | 1.11 µM (active) |  | 1.2 µM (inactive)
5 | CNC1=C/C(=N/C2=CC(=N/C(=C\C#N)C(C)(C)O)/OC2(C)C)OC1(C)C | 11.8 µM (inactive) | 5.77 µM (inactive) | 2.31 µM (inactive) |  | 7.1 µM (inactive) | 30.9 µM (inactive) | 9.95 µM (inactive) | 12 µM (inactive) | 5.82 µM (inactive) | 13.7 µM (inactive) | 4.9 µM (inactive) | 3.08 µM (inactive) | 40.4 µM (inactive) | 5.97 µM (inactive) | 5.15 µM (inactive) | 2.01 µM (inactive) | 11.8 µM (inactive) | 11.9 µM (inactive) | 5.51 µM (inactive)
6 | Cc1[nH]c(=O)c2oc3cc4ccccc4cc3c2c1C(=O)O | > 10 µM (inactive) | > 10 µM (inactive) |  | > 10 µM (inactive) | > 10 µM (inactive) |  | > 10 µM (inactive) | > 10 µM (inactive) | > 10 µM (inactive) | > 10 µM (inactive) | > 10 µM (inactive) |  | > 10 µM (inactive) | > 10 µM (inactive) |  | > 10 µM (inactive) | > 10 µM (inactive) | > 10 µM (inactive) | > 10 µM (inactive)
7 | CS(=O)(=O)N(CC(=O)O)Cc1ccccc1 | > 100 µM (inactive) |  | > 100 µM (inactive) | > 100 µM (inactive) | > 100 µM (inactive) | > 100 µM (inactive) | > 100 µM (inactive) | > 100 µM (inactive) | > 100 µM (inactive) | > 100 µM (inactive) | > 100 µM (inactive) | > 100 µM (inactive) | > 100 µM (inactive) | > 100 µM (inactive) | > 100 µM (inactive) |  | > 100 µM (inactive) | > 100 µM (inactive) | > 100 µM (inactive)
8 | O=[N+]([O-])C(=C(Nc1cccc2cccnc12)Nc1cccc2cccnc12)C(Cl)=C(Cl)Cl | > 71.3 µM (inactive) | > 100 µM (inactive) | 74.1 µM (inactive) | 30 µM (inactive) | 55.1 µM (inactive) | > 100 µM (inactive) | 7.35 µM (inactive) | 58.3 µM (inactive) | 13.5 µM (inactive) | > 100 µM (inactive) | > 100 µM (inactive) | 34 µM (inactive) | 28.8 µM (inactive) | 33.4 µM (inactive) | 45 µM (inactive) |  | > 100 µM (inactive) |  | 50.4 µM (inactive)
9 | CC1(C)C2CCC1C(=O)C(C=O)C2 (configuration not stated) | > 100 µM (inactive) | > 100 µM (inactive) | > 100 µM (inactive) | > 100 µM (inactive) | > 100 µM (inactive) | > 100 µM (inactive) | > 100 µM (inactive) | > 100 µM (inactive) | > 100 µM (inactive) |  | 3.16 µM (inactive) | > 100 µM (inactive) | > 100 µM (inactive) | > 100 µM (inactive) | > 100 µM (inactive) | 57.3 µM (inactive) | > 100 µM (inactive) |  | > 100 µM (inactive)
10 | O=C(Oc1ccc2c(c1)CN(Cc1ccccc1)CO2)c1ccccc1 | 16.9 µM (inactive) | 17.7 µM (inactive) | 10.7 µM (inactive) | 15.2 µM (inactive) | 17.3 µM (inactive) | 17.3 µM (inactive) | 19.2 µM (inactive) | 17.9 µM (inactive) | 16.9 µM (inactive) | 16.7 µM (inactive) | 18.2 µM (inactive) | 10.6 µM (inactive) | 23.4 µM (inactive) | 18.7 µM (inactive) | 16 µM (inactive) |  | 18 µM (inactive) | 12.7 µM (inactive) | 17.1 µM (inactive)
11 | CCOC(=O)[C@H]1C[C@@H](C(=O)c2ccccc2)N2N=C(c3ccc(Br)cc3)C=C[C@H]12 | > 100 µM (inactive) | > 100 µM (inactive) | 77.6 µM (inactive) | > 100 µM (inactive) | > 100 µM (inactive) | > 100 µM (inactive) | > 100 µM (inactive) | > 100 µM (inactive) | > 100 µM (inactive) |  | 9.48 µM (inactive) |  | > 100 µM (inactive) | > 100 µM (inactive) | > 100 µM (inactive) |  | > 100 µM (inactive) |  | > 100 µM (inactive)
12 | Cc1ccc(S(=O)(=O)NC2C(=O)c3ccccc3C(=O)C2n2ccnc2)cc1 (configuration not stated) | 17.4 µM (inactive) | > 100 µM (inactive) | 25.7 µM (inactive) | 31.2 µM (inactive) | > 100 µM (inactive) |  | 16 µM (inactive) | 17 µM (inactive) | > 100 µM (inactive) | > 100 µM (inactive) | 67.8 µM (inactive) | 20 µM (inactive) | > 100 µM (inactive) | > 100 µM (inactive) | 20.4 µM (inactive) | 18.6 µM (inactive) | > 100 µM (inactive) | 35.8 µM (inactive) | 12.2 µM (inactive)
13 | CCOP(=O)(OCC)/C(C#N)=C/c1cccn1CC(C)C | > 100 µM (inactive) | 61.4 µM (inactive) | 52.5 µM (inactive) | > 100 µM (inactive) | > 100 µM (inactive) | > 100 µM (inactive) | 57.3 µM (inactive) | > 100 µM (inactive) | > 100 µM (inactive) | > 100 µM (inactive) | > 100 µM (inactive) |  | > 100 µM (inactive) | > 100 µM (inactive) | > 100 µM (inactive) |  | > 100 µM (inactive) | > 100 µM (inactive) | > 100 µM (inactive)
14 | CO[C@@H](C(=O)OC1C=CC2(CC1)C(=O)N(C)c1ccccc12)c1ccccc1 (some centres not stated) | > 100 µM (inactive) | > 100 µM (inactive) | 40.4 µM (inactive) |  | > 100 µM (inactive) | > 100 µM (inactive) | > 100 µM (inactive) | > 100 µM (inactive) | 50.8 µM (inactive) | 57 µM (inactive) | 42.1 µM (inactive) | > 100 µM (inactive) | 45.1 µM (inactive) | > 100 µM (inactive) | 52.5 µM (inactive) | 20.9 µM (inactive) | 72.6 µM (inactive) | > 100 µM (inactive) | > 100 µM (inactive)
15 | OCCCCCCCCCCCOc1ccc(C2OCC3(CO2)COC(c2ccc(OCCCCCCCCCCCO)cc2)OC3)cc1 (configuration not stated) | > 50 µM (inactive) | > 50 µM (inactive) | > 50 µM (inactive) |  | > 50 µM (inactive) | > 50 µM (inactive) | > 50 µM (inactive) | > 50 µM (inactive) | > 50 µM (inactive) | > 50 µM (inactive) | > 50 µM (inactive) |  | > 50 µM (inactive) | > 50 µM (inactive) | > 50 µM (inactive) |  | > 50 µM (inactive) |  | > 50 µM (inactive)
16 | O=C(OC[C@H]1C[C@H]2C(=O)CCC[C@H]2O1)c1ccccc1 | > 100 µM (inactive) | > 100 µM (inactive) | > 100 µM (inactive) |  | > 100 µM (inactive) | > 100 µM (inactive) | > 100 µM (inactive) | > 100 µM (inactive) | > 100 µM (inactive) | > 100 µM (inactive) | > 100 µM (inactive) | > 100 µM (inactive) | > 100 µM (inactive) | > 100 µM (inactive) | > 100 µM (inactive) | > 100 µM (inactive) | > 100 µM (inactive) | > 100 µM (inactive) | > 100 µM (inactive)
